Measured values: the supplement of paper PMC11061612

What was measured:
Experiment in all cases: combination Emax (second highest fraction inhibited in the dose matrix, 72 h); higher = more inhibition; extreme values may be limits of the assay
[1] = tested on: D-392MG (Glioblastoma)
Method in brief: (§1)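 Bliss excess equals the observed combination effect minus the expected value EA + EB − EA·EB, where EA and EB are the effects of each agent alone. Combination Emax is the second-highest inhibition within the matrix. Inhibition was scaled from CellTiter-Glo 2.0 luminescence, with 0 set by vehicle wells and 1 by blank wells, after 72 hours of two-drug dosing of cells plated in 1536-well plates.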

[2] = tested on: ETK-1 (Biliary Tract Carcinoma)
Method in brief: as §1

[3] = tested on: HCT-116 (Colorectal Carcinoma)
Method in brief: as §1

[4] = tested on: PA-TU-8902 (Pancreatic Carcinoma)
Method in brief: as §1

[5] = tested on: Saos-2 (Osteosarcoma)
Method in brief: as §1

[6] = tested on: H4 (Low Grade Glioma)
Method in brief: as §1

[7] = tested on: MCF7 (Breast Carcinoma)
Method in brief: as §1

[8] = tested on: KG-1 (Acute Myeloid Leukemia)
Method in brief: as §1

[9] = tested on: HOP-92 (Non-Small Cell Lung Carcinoma)
Method in brief: as §1

[10] = tested on: SNG-M (Endometrial Carcinoma)
Method in brief: as §1

[11] = tested on: NCI-H1688 (Small Cell Lung Carcinoma)
Method in brief: as §1

[12] = tested on: SW948 (Colorectal Carcinoma)
Method in brief: as §1

[13] = tested on: D-283MED (Other Solid Carcinomas)
Method in brief: as §1

[14] = tested on: U-118-MG (Low Grade Glioma)
Method in brief: as §1

[15] = tested on: HCC1143 (Breast Carcinoma)
Method in brief: as §1

[16] = tested on: CAL-39 (Other Solid Carcinomas)
Method in brief: as §1

[17] = tested on: HLE (Hepatocellular Carcinoma)
Method in brief: as §1

[18] = tested on: YT (Other Blood Carcinomas)
Method in brief: as §1

[19] = tested on: SNU-61 (Colorectal Carcinoma)
Method in brief: as §1

[20] = tested on: TYK-nu (Ovarian Carcinoma)
Method in brief: as §1

Structure (SMILES) | combination Emax [1] | combination Emax [2] | combination Emax [3] | combination Emax [4] | combination Emax [5] | combination Emax [6] | combination Emax [7] | combination Emax [8] | combination Emax [9] | combination Emax [10] | combination Emax [11] | combination Emax [12] | combination Emax [13] | combination Emax [14] | combination Emax [15] | combination Emax [16] | combination Emax [17] | combination Emax [18] | combination Emax [19] | combination Emax [20]
COc1cccc(OCCCN)c1-c1cc(Nc2cnc(C#N)cn2)n[nH]1 [Prexasertib] + CCc1c2c(nc3ccc(O)cc13)-c1cc3c(c(=O)n1C2)COC(=O)[C@]3(O)CC [SN-38] (first compound max 1 µM, 7x7, partner max 0.3 µM) | 0.551 | 0.727 | 0.901 | 0.752 | 0.887 | 0.941 | 0.685 | 0.925 | 0.873 | 0.899 | 0.941 | 0.94 | 0.99 | 0.986 | 0.928 | 0.919 | 0.95 | 0.96 | 0.698 | 0.861
COc1cccc(OCCCN)c1-c1cc(Nc2cnc(C#N)cn2)n[nH]1 [Prexasertib] + CN(C)CCCOc1ccc(-c2ccc3ncc4c(c3c2)n(C2CCOCC2)c(=O)n4C)cn1 [AZD0156] (first compound max 1 µM, 7x7, partner max 1 µM) | 0.567 | 0.598 | 0.536 | 0.586 | 0.644 | 0.917 | 0.741 | 0.903 | 0.704 | 0.99 | 0.568 | 0.804 | 0.99 | 0.723 | 0.912 | 0.258 | 0.803 | 0.964 | 0.422 | 0.73
COc1cccc(OCCCN)c1-c1cc(Nc2cnc(C#N)cn2)n[nH]1 [Prexasertib] + C[C@@H]1COCCN1C2=NC(=NC(=C2)C3(CC3)[S@](=N)(=O)C)C4=C5C=CNC5=NC=C4 [AZD6738] (first compound max 1 µM, 7x7, partner max 10 µM) | 0.524 | 0.588 | 0.747 | 0.601 | 0.704 | 0.91 | 0.703 | 0.931 | 0.669 | 1 | 0.535 | 0.821 | 0.988 | 0.772 | 0.938 | 0.524 | 0.867 | 0.918 | 0.422 | 0.766
COc1cccc(OCCCN)c1-c1cc(Nc2cnc(C#N)cn2)n[nH]1 [Prexasertib] + Cc1cc2ncnn2cc1Nc1ncc2c(n1)n(C1CCOCC1)c(=O)n2C [AZD7648] (first compound max 1 µM, 7x7, partner max 10 µM) | 0.519 | 0.595 | 0.565 | 0.598 | 0.662 | 0.874 | 0.682 | 0.912 | 0.663 | 0.954 | 0.557 | 0.812 | 0.995 | 0.686 | 0.883 | 0.328 | 0.842 | 0.928 | 0.466 | 0.739
COc1cccc(OCCCN)c1-c1cc(Nc2cnc(C#N)cn2)n[nH]1 [Prexasertib] + O=C(c1cc(Cc2n[nH]c(=O)c3ccccc23)ccc1F)N1CCN(C(=O)C2CC2)CC1 [Olaparib] (first compound max 1 µM, 7x7, partner max 10 µM) | 0.491 | 0.578 | 0.744 | 0.501 | 0.806 | 0.845 | 0.429 | 1 | 0.665 | 0.929 | 0.528 | 0.838 | 0.982 | 0.751 | 0.735 | 0.387 | 0.842 | 0.966 | 0.474 | 0.748
COc1cc2c(cc1OCCCCCOc1cc3c(cc1OC)C(=O)N1C=C(C)C[C@H]1C=N3)N=C[C@@H]1CC(C)=CN1C2=O [SG3199] + O=C(c1cc(Cc2n[nH]c(=O)c3ccccc23)ccc1F)N1CCN(C(=O)C2CC2)CC1 [Olaparib] (first compound max 0.001 µM, 7x7, partner max 10 µM) | 0.111 | 0.188 | 0.314 | 0.0749 | 0.125 | 0.505 | 0.106 | 0.289 | 0.192 | 0.159 | 0.107 | 0.185 | 0.417 | 0.305 | 0.225 | 0.0869 | 0.143 | 0.25 | 0.0451 | 0.369
CCc1c2c(nc3ccc(O)cc13)-c1cc3c(c(=O)n1C2)COC(=O)[C@]3(O)CC [SN-38] + CN(C)CCCOc1ccc(-c2ccc3ncc4c(c3c2)n(C2CCOCC2)c(=O)n4C)cn1 [AZD0156] (first compound max 0.3 µM, 7x7, partner max 1 µM) | 0.609 | 0.572 | 0.826 | 0.413 | 0.944 | 0.931 | 0.686 | 0.886 | 0.606 | 0.433 | 0.322 | 0.746 | 0.954 | 0.893 | 0.662 | 0.896 | 0.916 | 0.914 | 0.152 | 0.847
